Here are results for 15 compounds from PMC4972190, “In vitro activity of salinomycin and monensin derivatives against Trypanosoma brucei” (Parasites & Vectors, 2016).

Assay [1] has as its system Bloodstream forms of T. brucei (clone 427-221a). As to the kind of experiment: Toxicity assay (resazurin, 72 h) on bloodstream forms of T. brucei. In kind it is cell-based, Trypanosoma brucei. As to conditions: for Selectivity GI50 ratio: GI50(HL-60)/GI50(T. brucei); for Selectivity MIC ratio: MIC(HL-60)/MIC(T. brucei); for GI50 / MIC: Trypanosoma brucei, 72 h; for MIC: concentration at which all cells were killed, determined microscopically, mean of three experiments. On the procedure: (§1) Bloodstream forms of T. brucei (clone 427-221a) and human myeloid leukaemia HL-60 cells were grown in Baltz medium and RPMI medium, respectively. Both culture media were supplemented with 16.7 % (v/v) heat-inactivated foetal calf serum. All cultures were maintained in a humidified atmosphere containing 5 % CO2 at 37 °C.
(§2) Cells were seeded in 96-well plates in a final volume of 200 μl of their respective culture medium containing 10-fold serial dilutions of ionophore derivatives (10^-4 to 10^-10 M) and 1 % DMSO. Wells containing medium and 1 % DMSO served as controls. The initial cell densities were 1 × 10^4/ml for T. brucei and 1 × 10^5/ml for HL-60 cells. After 24 h incubation at 37 °C in a humidified atmosphere containing 5 % CO2, 20 μl of a 0.44 mM resazurin solution prepared in PBS was added and the cells were incubated for a further 48 h so that the total incubation time was 72 h. Thereafter, the plates were read on a microplate reader using a test wavelength of 570 nm and a reference wavelength of 630 nm. The 50 % growth inhibition (GI50) value, i.e. the concentration of a compound necessary to reduce the growth rate of cells by 50 % compared to the control was determined by linear interpolation according to the method described in [22]. The minimum inhibitory concentration (MIC) values, i.e. the concentration of the drug at which all trypanosome and human cells were killed, was determined microscopically. Each compound was independently tested three times.

Assay [2] deals with human myeloid leukaemia HL-60 cells. Nature of the assay: Toxicity assay (resazurin, 72 h) on HL-60 cells. In kind it is cell-based. As to conditions: for MIC: determined microscopically, mean of three experiments; for GI50: Homo sapiens. Here is the method: as §1, §2
A general note: Resazurin is reduced to fluorescent resorufin, in cell work by metabolically active cells.

Setting [3] is: T. brucei bloodstream forms, read-out: MIC.
[4] abbreviates: T. brucei bloodstream forms, resazurin, mean ± SD of three experiments, read-out: GI50.
The mark [5] stands for this setting: HL-60 cells, 72 h, resazurin, mean ± SD of three experiments, read-out: GI50.

Values after ≈ are worked out from the molar mass of the structure shown. Read-outs that look alike come from different tables or passages of the source. Where only a bound is given, the exact number is not on record here.

Turning to `CCC1(C2OC(C3OC(O)(CO)C(C)CC3C)CC2C)CCC(C2(C)CCC3(CC(O)C(C)C(C(C)C(OC)C(C)C(=O)OC)O3)O2)O1` (centres unmarked) [MON-E1], the “Selectivity GI50 ratio” value in assay [1] amounted to 11.1. The “Selectivity MIC ratio” value in assay [1] is 10. Further, the GI50 – broadly, the concentration that inhibits growth by half – in assay [1] is 3.06 ± 0.06 µM; in assay [2] (HL-60, 72 h) it was 34.1 ± 2.2 µM. The MIC – broadly, the smallest concentration in the dilution series that meets the test's criterion for growth inhibition – in assay [1] (T. brucei bloodstream forms) came to 10 µM (≈ 6.85 µg/mL); in assay [2] (HL-60 cells, 72 h), 100 µM (≈ 68.5 µg/mL).

For the compound `CCC1(C2OC(C3OC(O)(CO)C(C)CC3C)CC2C)CCC(C2(C)CCC3(CC(O)C(C)C(C(C)C(OC)C(C)C(=O)OCCO)O3)O2)O1` (centres unmarked) [MON-E2], in assay [1], the “Selectivity GI50 ratio” value worked out at 9.2, the “Selectivity MIC ratio” value is recorded as 10 and halving of growth (GI50) required 2.76 ± 0.1 µM. In assay [1] (T. brucei bloodstream forms), the MIC was found to be 10 µM (≈ 7.15 µg/mL). Besides, in assay [2] (HL-60 cells, 72 h), the MIC turned out to be 100 µM (≈ 71.5 µg/mL). In assay [2] (HL-60, 72 h), the GI50 came out at 25.3 ± 5 µM.

For the compound `CCC1(C2OC(C3OC(O)(CO)C(C)CC3C)CC2C)CCC(C2(C)CCC3(CC(O)C(C)C(C(C)C(OC)C(C)C(=O)OCCOCCOC)O3)O2)O1` (centres unmarked) [MON-E3], in assay [1], the “Selectivity GI50 ratio” value came out at 12.1. The “Selectivity MIC ratio” value in assay [1] came out at 10. For the same compound, the GI50 in assay [1] came out at 1.68 ± 0.56 µM; in assay [2] (HL-60, 72 h), 20.3 ± 3.1 µM. The MIC in assay [1] (T. brucei bloodstream forms) was found to be 10 µM (≈ 7.73 µg/mL); in assay [2] (HL-60 cells, 72 h), 100 µM (≈ 77.3 µg/mL).

As for `C=CCNC(=O)OCC1(O)OC(C2CC(C)C(C3(CC)CCC(C4(C)CCC5(CC(O)C(C)C(C(C)C(OC)C(C)C(=O)O)O5)O4)O3)O2)C(C)CC1C` (centres unmarked) [MON-UR1], in assay [1], the “Selectivity GI50 ratio” value is 75, the “Selectivity MIC ratio” value is given as 100 and the GI50 was 0.31 ± 0.06 µM. This compound showed an MIC in assay [1] (T. brucei bloodstream forms) of 1 µM (≈ 0.754 µg/mL). In addition, the MIC in assay [2] (HL-60 cells, 72 h) worked out at 100 µM (≈ 75.4 µg/mL). The same compound had a GI50 in assay [2] (HL-60, 72 h) of 23.3 ± 6.6 µM.

`CC[C@@]1([C@@H]2O[C@@H]([C@H]3O[C@@](O)(CO)[C@H](C)C[C@@H]3C)C[C@@H]2C)CC[C@H]([C@]2(C)CC[C@]3(C[C@H](O)[C@@H](C)[C@@H]([C@@H](C)[C@@H](OC)[C@H](C)C(=O)O)O3)O2)O1` [Monensin, monensin]: the “Selectivity GI50 ratio” value in assay [1] is 51. For the same compound, the “Selectivity MIC ratio” value in assay [1] was determined as 100. The MIC was found to be 0.1 µM (≈ 0.0671 µg/mL) in assay [1] (setting [3]) and 10 µM (≈ 6.71 µg/mL) in assay [2] (HL-60 cells, 72 h). Further, the concentration for 50% growth inhibition (GI50) in assay [1] (setting [4]) worked out at 0.029 ± 0.002 µM; in assay [2] (setting [5]), 1.48 ± 0.56 µM.

On to `C=CCNC(=O)C(CC)C1CCC(C)C(C(C)C(O)C(C)C(=O)C(CC)C2OC3(C=CC(O)C4(CCC(C)(C5CCC(O)(CC)C(C)O5)O4)O3)C(C)CC2C)O1` (centres unmarked) [SAL-AM1], for which, in assay [1], the “Selectivity GI50 ratio” value was 12.0. The “Selectivity MIC ratio” value in assay [1] was found to be 10. Moreover, the GI50 in assay [1] came out at 3.23 ± 0.21 µM; in assay [2] (HL-60, 72 h), 38.9 ± 3.2 µM. In addition, the MIC is 10 µM (≈ 7.9 µg/mL) in assay [1] (T. brucei bloodstream forms) and 100 µM (≈ 79 µg/mL) in assay [2] (HL-60 cells, 72 h).

Turning to `CCC(C(=O)NCc1ccccc1)C1CCC(C)C(C(C)C(O)C(C)C(=O)C(CC)C2OC3(C=CC(O)C4(CCC(C)(C5CCC(O)(CC)C(C)O5)O4)O3)C(C)CC2C)O1` (centres unmarked) [SAL-AM3], in assay [1], the “Selectivity GI50 ratio” value amounted to 2.7, the “Selectivity MIC ratio” value was found to be 10 and halving of growth (GI50) required 2.94 ± 0.2 µM. Besides, the minimal inhibitory concentration (MIC) in assay [1] (T. brucei bloodstream forms) amounted to 10 µM (≈ 8.4 µg/mL). This compound gave an MIC in assay [2] (HL-60 cells, 72 h) of 100 µM (≈ 84 µg/mL). In assay [2] (HL-60, 72 h), this compound returned a GI50 of 7.92 ± 1.95 µM.

For `CCC(C(=O)NCCc1c[nH]c2ccccc12)C1CCC(C)C(C(C)C(O)C(C)C(=O)C(CC)C2OC3(C=CC(O)C4(CCC(C)(C5CCC(O)(CC)C(C)O5)O4)O3)C(C)CC2C)O1` (centres unmarked) [SAL-AM4], in assay [1], the “Selectivity GI50 ratio” value worked out at 9.1, the “Selectivity MIC ratio” value was determined as 10 and the GI50 was found to be 2.69 ± 0.51 µM. Also, the MIC in assay [1] (T. brucei bloodstream forms) stood at 10 µM (≈ 8.93 µg/mL). In assay [2] (HL-60 cells, 72 h), this compound came in with an MIC of 100 µM (≈ 89.3 µg/mL). In assay [2] (HL-60, 72 h), this compound had a concentration for 50% growth inhibition (GI50) of 24.5 ± 3.7 µM.

With `CCC(C(=O)NCCc1ccc(F)cc1)C1CCC(C)C(C(C)C(O)C(C)C(=O)C(CC)C2OC3(C=CC(O)C4(CCC(C)(C5CCC(O)(CC)C(C)O5)O4)O3)C(C)CC2C)O1` (centres unmarked) [SAL-AM5], in assay [1], the “Selectivity GI50 ratio” value stood at 14.6, the “Selectivity MIC ratio” value was 10 and it took 2.69 ± 0.2 µM to inhibit growth by half (GI50). This compound had an MIC in assay [1] (T. brucei bloodstream forms) of 10 µM (≈ 8.72 µg/mL). In addition, the MIC in assay [2] (HL-60 cells, 72 h) is 100 µM (≈ 87.2 µg/mL). In assay [2] (HL-60, 72 h), this compound displayed a GI50 of 39.2 ± 1.6 µM.

In the case of `CCC(C(=O)OC)C1CCC(C)C(C(C)C(O)C(C)C(=O)C(CC)C2OC3(C=CC(O)C4(CCC(C)(C5CCC(O)(CC)C(C)O5)O4)O3)C(C)CC2C)O1` (centres unmarked) [SAL-E1], the “Selectivity GI50 ratio” value in assay [1] came out at 11.4. The “Selectivity MIC ratio” value in assay [1] is 10. Also, the GI50 in assay [1] is 3.08 ± 0.18 µM; in assay [2] (HL-60, 72 h), 35.5 ± 2.4 µM. The MIC in assay [1] (T. brucei bloodstream forms) turned out to be 10 µM (≈ 7.65 µg/mL); in assay [2] (HL-60 cells, 72 h) it was 100 µM (≈ 76.5 µg/mL).

As to `CCC(C(=O)OCCO)C1CCC(C)C(C(C)C(O)C(C)C(=O)C(CC)C2OC3(C=CC(O)C4(CCC(C)(C5CCC(O)(CC)C(C)O5)O4)O3)C(C)CC2C)O1` (centres unmarked) [SAL-E2], in assay [1], the “Selectivity GI50 ratio” value was 10.6, the “Selectivity MIC ratio” value came to 10 and growth was halved (GI50) at 3.25 ± 0.26 µM. The same compound yielded an MIC in assay [1] (T. brucei bloodstream forms) of 10 µM (≈ 7.95 µg/mL). The compound also registered an MIC in assay [2] (HL-60 cells, 72 h) of 100 µM (≈ 79.5 µg/mL). The compound also showed a GI50 in assay [2] (HL-60, 72 h) of 34.6 ± 1.9 µM.

Take `C=CCOC(=O)C(CC)C1CCC(C)C(C(C)C(O)C(C)C(=O)C(CC)C2OC3(C=CC(O)C4(CCC(C)(C5CCC(O)(CC)C(C)O5)O4)O3)C(C)CC2C)O1` (centres unmarked) [SAL-E3]: in assay [1], the “Selectivity GI50 ratio” value amounted to 10.9, the “Selectivity MIC ratio” value worked out at 10 and it took 3.1 ± 0.21 µM to inhibit growth by half (GI50). The MIC in assay [1] (T. brucei bloodstream forms) is 10 µM (≈ 7.91 µg/mL). This compound also had an MIC in assay [2] (HL-60 cells, 72 h) of 100 µM (≈ 79.1 µg/mL). The same compound yielded a GI50 in assay [2] (HL-60, 72 h) of 33.8 ± 3.5 µM.

For the compound `CCCCOC(=O)C(CC)C1CCC(C)C(C(C)C(O)C(C)C(=O)C(CC)C2OC3(C=CC(O)C4(CCC(C)(C5CCC(O)(CC)C(C)O5)O4)O3)C(C)CC2C)O1` (centres unmarked) [SAL-E4], in assay [1], the “Selectivity GI50 ratio” value worked out at 10.5, the “Selectivity MIC ratio” value is 10 and the GI50 worked out at 3.12 ± 0.08 µM. Also, the MIC in assay [1] (T. brucei bloodstream forms) came out at 10 µM (≈ 8.07 µg/mL). In assay [2] (HL-60 cells, 72 h), this compound yielded an MIC of 100 µM (≈ 80.7 µg/mL). This compound registered a GI50 in assay [2] (HL-60, 72 h) of 32.9 ± 2.5 µM.

Consider `CCC(C(=O)OCc1ccccc1)C1CCC(C)C(C(C)C(O)C(C)C(=O)C(CC)C2OC3(C=CC(O)C4(CCC(C)(C5CCC(O)(CC)C(C)O5)O4)O3)C(C)CC2C)O1` (centres unmarked) [SAL-E5], for which, in assay [1], the “Selectivity MIC ratio” value was found to be 10. For the same compound, the GI50 in assay [1] was found to be 3.21 ± 0.02 µM; in assay [2] (HL-60, 72 h), 38.4 ± 4.2 µM. The MIC came out at 10 µM (≈ 8.41 µg/mL) in assay [1] (T. brucei bloodstream forms) and 100 µM (≈ 84.1 µg/mL) in assay [2] (HL-60 cells, 72 h).

Regarding `Cc1ccc(C(=O)Nc2ccc(S(=O)(=O)O)c3cc(S(=O)(=O)O)cc(S(=O)(=O)O)c23)cc1NC(=O)c1cccc(NC(=O)Nc2cccc(C(=O)Nc3cc(C(=O)Nc4ccc(S(=O)(=O)O)c5cc(S(=O)(=O)O)cc(S(=O)(=O)O)c45)ccc3C)c2)c1` [Suramin, suramin, reference compound], the “Selectivity GI50 ratio” value in assay [1] is on record as greater than 2857. For the same compound, the “Selectivity MIC ratio” value in assay [1] was greater than 1000. The MIC was 0.1 µM (≈ 0.13 µg/mL) in assay [1] (setting [3]) and greater than 100 µM in assay [2] (HL-60 cells, 72 h). The GI50 in assay [1] (setting [4]) is 0.035 ± 0.002 µM; in assay [2] (setting [5]), greater than 100 µM.
